Test results taken from patent US10189809B2, “SGC stimulators” (Ironwood Pharmaceuticals, Inc., priority 2010, dated 2019).
pEC50: −log10 of the molar value. Read-outs that look alike come from different tables or passages of the source.

Assays:
[1] = target: T1, soluble guanylate cyclase (sGC) (Homo sapiens (Human), UniProt Q02108+Q02153); assay: sGC-HEK-cGMP assay run in the absence of SNP (HEK WC assay); format: cell-based; settings: compound at 30 μM, absence of SNP
Experimental: (§1) Human embryonic kidney cells (HEK293), endogenously expressing soluble guanylate cyclase (sGC), were used to evaluate the activity of test compounds. Compounds stimulating the sGC receptor should cause an increase in the intracellular concentration of cGMP. HEK 293 cells were seeded in Dulbecco's Modification of Eagle's Medium supplemented with fetal bovine serum (10% final) and L-glutamine (2 mM final) in a 200 μL volume at a density of 1×10^5 cells/well in a poly-D-lysine coated 96 well flat bottom plate and grown overnight at 37° C. Medium was aspirated and cells were washed with 1× Hank's Buffered Saline Salt Solution (200 μL). Cells were then incubated for 15 minutes at 37° C. with 0.5 mM 3-isobutyl-1-methylxanthine (200 μL). Test article was then added to the assay mixture (2 μL) and incubated at 37° C. for 10 minutes. After the 10 minute incubation, the assay mixture was aspirated and 0.1M HCl (200 μL) was added to the cells. The plate was incubated at 4° C. for 30 minutes in the 0.1M HCl to stop the reaction and lysed the cells. The plates were then centrifuged at 1,200 g for 5 minutes at room temperature. Supernatants were collected and transferred to a new flat bottom 96 well plate for analysis. Vehicle controls were carried out using DMSO (1%). A known sGC stimulator, BAY 41-2272, was used as the positive control. Samples were diluted with an equal volume of 1 M Ammonium Acetate (pH 7) to neutralize samples for better chromatography. A 2× cGMP standard curve was prepared in 0.1 M HCl and then diluted with an equal volume of 1 M Ammonium Acetate, with the following final concentrations in nM: 1024, 512, 256, 128, 64, 32, 16, 8, 4, 2, 1. cGMP concentrations were determined from each sample using the LC/MS conditions (Table 2 below) and calculated standard curve. EC50 values were calculated from concentration-response curves generated with GraphPad Prism Software.

[2] = target: T1, soluble guanylate cyclase (sGC); assay: sGC-HEK-cGMP assay run with SNP incubation (HEK WC assay); format: cell-based; settings: for HEK WC Assay (fold increase at 30 μM in the presence of 10 μM SNP): compound at 30 μM; for pEC50: in the presence of 10 uM SNP; for Emax at 10 µM: read-out: HEK WC Assay (% Emax at 10 μM/with 10 uM SNP); for Emax at 30 µM: read-out: HEK WC Assay (% Emax at 30 μM/with 10 uM SNP)
Experimental: as §1, with “article and sodium nitroprusside were” for “article was”, “(2 μL each)” for “(2 μL)”, “(1%). […]” for “(1%). A known sGC stimulator, BAY 41-2272, was used as the positive control.”, “chromatography. […]” for “chromatography. A 2× cGMP standard curve was prepared in 0.1 M HCl and then diluted with an equal volume of 1 M Ammonium Acetate, with the following final concentrations in nM: 1024, 512, 256, 128, 64, 32, 16, 8, 4, 2, 1. cGMP concentrations were determined from each sample using the LC/MS conditions (Table 2 below) and calculated standard curve.”

Thoracic aortic rings = assay: Alternative thoracic aortic rings assay (Example 19b; resting tension as 100% inhibition); set-up: species or system rat; settings: Rattus norvegicus; for inhibition at 1 µM: read-out: Percent Relaxation at 1 μM; for inhibition at 3 µM: read-out: Percent Relaxation at 3 μM; for inhibition at 10 µM: read-out: Percent Relaxation at 10 μM; for pEC50: read-out: Aortic Ring EC50
Experimental: Thoracic aortic rings were dissected from anesthetized (isoflurane) male Sprague-Dawley rats weighing 275-299 g. Tissues were immediately transferred to ice-cold Krebs-Henseleit solution, which had been aerated with 95% O2 and 5% CO2 for 30 minutes. Following removal of connective tissue, aortic sections were cut into 4 rings (˜2 mm each) and suspended on 2 L-shaped hooks, with one hook fixed at the bottom of the tissue bath (Schuler Organ Bath, Harvard Apparatus) and the other connected to a force transducer (F30 Force Transducer, Harvard Apparatus). Baths contained Krebs Henseleit solution (10 mL) heated to 37° C. and aerated with 95% O2 and 5% CO2. Rings were brought to an initial tension of 0.3-0.5 g and gradually raised to a resting tension of 1.0 g over 60 minutes. Rings were rinsed with Krebs Henseleit solution (heated to 37° C. and aerated with 95% O2 and 5% CO2) at 15 minute intervals until a stable baseline was obtained. Rings were considered to be stable after a resting tension of 1.0 g was maintained (for approximately 10 minutes) without need for adjustment. Rings were then contracted with 100 ng/mL phenylephrine by adding 100 uL of a 10 μg/mL phenylephrine stock solution. Tissues achieving a stable contraction were then treated in a cumulative, dose dependent manner with test compounds prepared in dimethylsulfoxide (DMSO). In some cases, tissues were rinsed three times over a 5 minute period with Krebs-Heinseleit's solution (heated to 37° C. and aerated with 95% O2 and 5% CO2), allowed to stabilize at baseline, and then used for characterization of other test articles or DMSO effects. All data were collected using the HSE-ACAD software provided by Harvard Apparatus. […] EC50 values were calculated from concentration-response curves generated with GraphPad Prism Software.

[3] = read-out: HEK WC Assay (% Emax at 1 μM with 10 uM SNP)
[4] = read-out: HEK WC Assay (% Emax at 10 μM with 10 uM SNP)
[5] = read-out: HEK WC Assay (% Emax at 30 μM with 10 uM SNP)

T1 sequence (Q02153 whole entry): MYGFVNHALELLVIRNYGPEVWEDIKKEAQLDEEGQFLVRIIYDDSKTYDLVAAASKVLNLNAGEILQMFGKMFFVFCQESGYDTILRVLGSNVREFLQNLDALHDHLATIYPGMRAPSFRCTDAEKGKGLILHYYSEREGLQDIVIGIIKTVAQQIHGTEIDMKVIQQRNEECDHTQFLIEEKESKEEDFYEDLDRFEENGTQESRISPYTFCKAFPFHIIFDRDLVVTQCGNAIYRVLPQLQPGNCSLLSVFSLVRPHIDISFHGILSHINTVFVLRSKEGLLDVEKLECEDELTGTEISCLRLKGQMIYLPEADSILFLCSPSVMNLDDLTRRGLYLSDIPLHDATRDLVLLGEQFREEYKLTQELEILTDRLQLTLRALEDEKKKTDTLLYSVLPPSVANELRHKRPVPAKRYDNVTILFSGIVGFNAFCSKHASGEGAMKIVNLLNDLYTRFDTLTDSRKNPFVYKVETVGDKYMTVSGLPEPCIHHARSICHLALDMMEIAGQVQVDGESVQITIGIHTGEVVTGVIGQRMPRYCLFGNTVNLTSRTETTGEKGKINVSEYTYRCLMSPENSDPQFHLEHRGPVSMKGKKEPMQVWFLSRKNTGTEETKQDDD
T1 sequence (Q02108 whole entry): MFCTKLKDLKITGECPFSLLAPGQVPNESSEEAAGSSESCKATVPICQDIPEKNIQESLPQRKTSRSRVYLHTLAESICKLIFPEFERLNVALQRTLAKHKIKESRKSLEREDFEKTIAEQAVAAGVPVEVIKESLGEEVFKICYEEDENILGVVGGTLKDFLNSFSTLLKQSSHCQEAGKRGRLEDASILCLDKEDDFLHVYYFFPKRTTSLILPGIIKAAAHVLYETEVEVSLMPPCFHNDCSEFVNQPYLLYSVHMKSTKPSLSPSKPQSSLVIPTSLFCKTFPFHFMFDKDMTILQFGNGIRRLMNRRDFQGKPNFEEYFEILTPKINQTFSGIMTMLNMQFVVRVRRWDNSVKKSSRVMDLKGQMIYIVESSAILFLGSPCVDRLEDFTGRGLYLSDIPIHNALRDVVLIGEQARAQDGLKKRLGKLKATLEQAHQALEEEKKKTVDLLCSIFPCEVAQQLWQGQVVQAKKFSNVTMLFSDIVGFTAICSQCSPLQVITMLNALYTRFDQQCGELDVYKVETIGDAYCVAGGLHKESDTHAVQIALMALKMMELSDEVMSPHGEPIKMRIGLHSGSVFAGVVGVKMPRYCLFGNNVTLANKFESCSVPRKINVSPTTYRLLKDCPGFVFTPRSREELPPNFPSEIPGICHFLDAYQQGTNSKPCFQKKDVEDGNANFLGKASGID

SMILES | HEK WC Assay (fold increase at 30 μM in the absence of SNP) [1] | HEK WC Assay (fold increase at 30 μM in the presence of 10 μM SNP) [2] | pEC50 [2] | Emax [2, 3] [%] | Emax [2, 4] [%] | Emax [2, 5] [%] | Emax at 10 µM [2] [%] | Emax at 30 µM [2] [%] | inhibition at 1 µM (Thoracic aortic rings; Table 10A) [%] | inhibition at 3 µM (Thoracic aortic rings; Table 10A) [%] | inhibition at 10 µM (Thoracic aortic rings; Table 10A) [%] | pEC50 (Thoracic aortic rings; Table 10A) | inhibition at 1 µM (Thoracic aortic rings; Table 10B) [%] | inhibition at 3 µM (Thoracic aortic rings; Table 10B) [%] | pEC50 (Thoracic aortic rings; Table 10B) | inhibition at 10 µM (Thoracic aortic rings; Table 10B) [%]
Clc1ccccc1Cn1nc(-c2ncccn2)cc1-c1ccon1 [Compound I-200] | B (B = 1 to <2 fold increase) | C (C = 2 to <5 fold increase) | 3.22 to 3.52 | 0 to 10 | 0 to 10 | 0 to 10 |  |  |  |  |  |  |  |  |  | 
Oc1ccccc1Cn1nc(-c2ncccn2)cc1-c1ccon1 [Compound I-207] | B (B = 1 to <2 fold increase) | C (C = 2 to <5 fold increase) | 2.92 to 3.05 | 0 to 10 | 0 to 10 | 0 to 10 |  |  |  |  |  |  |  |  |  | 
CCOC(=O)c1cnc(-c2cc(-c3ccon3)n(Cc3ccccc3F)n2)nc1Cl [Compound I-140] |  |  |  |  |  |  | 60 to 80 | 40 to 60 | 20 to 40 | 60 to 80 | 80 to 100 | > 5.70 |  |  |  | 
CC(C)(C)OC(=O)Nc1cnc(-c2cc(-c3ccon3)n(Cc3ccccc3F)n2)nc1O [Compound I-164] | C (C = 2 to <5 fold increase) | E (E = 10 to <20 fold increase) |  |  | 20 to 40 | 20 to 40 |  |  |  |  |  |  |  |  |  | 
Oc1nc(-c2cc(-c3ncco3)n(Cc3ccccc3F)n2)ncc1F [Compound I-197] | C (C = 2 to <5 fold increase) | E (E = 10 to <20 fold increase) | 4.40 to 4.70 | 10 to 20 | 40 to 60 | 40 to 60 |  |  |  |  |  |  |  |  |  | 
NCC(=O)Nc1cnc(-c2cc(-c3ccon3)n(Cc3ccccc3F)n2)nc1N [Compound I-213] | D (D = 5 to <10 fold increase) | E (E = 10 to <20 fold increase) | 4.00 to 4.22 | 0 to 10 | 10 to 20 | 20 to 40 |  |  |  |  |  |  |  |  |  | 
Fc1ccccc1Cn1nc(-c2ccccn2)cc1-c1cncs1 [Compound I-311] | B (B = 1 to <2 fold increase) | C (C = 2 to <5 fold increase) |  |  | 0 to 10 | 0 to 10 |  |  |  |  |  |  |  |  |  | 
Nc1nc(-c2cc(-c3ccon3)n(Cc3ccccc3F)n2)ncc1NC(=O)c1cccc(F)c1 [Compound I-171] | E (E = 10 to <20 fold increase) | E (E = 10 to <20 fold increase) | > 4.70 | 60 to 80 | 100 to 120 | 80 to 100 |  |  |  |  |  |  |  |  |  | 
Nc1nc(-c2cc(-c3ccon3)n(Cc3ccccc3F)n2)ncc1NC(=O)c1ccc(Cl)cc1 [Compound I-182] | E (E = 10 to <20 fold increase) | E (E = 10 to <20 fold increase) | > 4.70 | 60 to 80 | 80 to 100 | 80 to 100 |  |  |  |  |  |  |  |  |  | 
Cc1cnc(-c2cc(-c3ccon3)n(Cc3ccccc3F)n2)nc1N [Compound I-297] |  |  | > 4.70 |  | 40 to 60 | 80 to 100 |  |  |  |  |  |  | 20 to 40 | 60 to 80 | > 5.70 | 
CC1(C(=O)Nc2cnc(-c3cc(-c4ccon4)n(Cc4ccccc4F)n3)nc2N)CC1(F)F (stereo not drawn) [Compound I-245] |  |  | > 4.70 | 80 to 100 | 100 to 120 | 100 to 120 |  |  |  |  |  |  | 80 to 100 | 100 to 120 | > 5.70 | 100 to 120
Nc1nc(-c2cc(-c3ccon3)n(Cc3ccccc3F)n2)ncc1NC(=O)c1nccs1 [Compound I-189] |  |  | > 4.70 | 60 to 80 | 60 to 80 | 60 to 80 |  |  |  |  |  |  | 80 to 100 | 80 to 100 | > 5.70 | 
Nc1nc(-c2cc(-c3ccon3)n(Cc3ccccc3F)n2)ncc1NC(=O)C1CC1 [Compound I-144] |  |  | > 4.70 |  | 100 to 120 | 60 to 80 |  |  |  |  |  |  | 80 to 100 | 100 to 120 | > 5.70 | 
CCOC(=O)c1cnc(-c2cc(-c3ccon3)n(Cc3ccccc3F)n2)nc1O [Compound I-138] |  |  |  |  |  |  | 40 to 60 | 40 to 60 | 20 to 40 | 40 to 60 |  | 5.40 to 5.70 |  |  |  | 
Fc1ccccc1Cn1nc(-c2ncccn2)cc1-c1ccno1 [Compound I-305] |  |  |  |  |  |  |  |  |  |  |  |  | 40 to 60 | 80 to 100 | > 5.70 | 100 to 120
Nc1nc(-c2cc(-c3ccon3)n(Cc3ccccc3F)n2)ncc1F [Compound I-109] |  |  |  |  |  |  |  |  | 80 to 100 | 60 to 80 | 100 to 120 | > 5.70 |  |  |  | 
